These results are taken from ChEMBL document CHEMBL6114999, “Natural pyrrolo[1,2-a]quinazolinone derivatives: Design, synthesis, characterization, and bio-evaluation as novel antiviral agents” (Eur J Med Chem, 2025).

Data set [1] relates to Coxsackievirus B3. Nature of the data set: Antiviral activity against CVB3 infected in HEp-2 cells assessed as protection from virus-induced cytopathogenicity incubated for 48 hrs by MTT assay. The class given is functional, organism-based. The settings on record: Enterovirus B, HEp-2, 48 h.
The test system of data set [2] is Enterovirus. As to the kind of experiment: Antiviral activity against EV71 infected in human RD cells assessed as inhibition of virus-induced cell death at 200 uM incubated for 48 hrs by MTT assay. Format: functional, organism-based. The settings on record: 71.
The subject of data set [3] is Coxsackievirus B3. As to the kind of experiment: Antiviral activity against CVB3 infected in HEp-2 cells assessed as inhibition of virus-induced cell death at 200 uM incubated for 48 hrs by MTT assay. Format: functional, organism-based.
A short description of data set [4]: Selectivity index, ratio of CC50 for cytotoxicity against HEp-2 cells to EC50 for antiviral activity against CVB3 infected in HEp-2 cells. The class given is toxicity, cell-based. As to conditions: human, read-out: Ratio CC50/EC50.
A short description of data set [5]: Cytotoxicity against human HEp-2 cells incubated for 48 hrs by MTT assay. Format: toxicity, cell-based.
Data set [6] is described as follows: Cytotoxicity against human RD cells incubated for 48 hrs by MTT assay. The class given is toxicity, cell-based.
Data set [7] concerns Enterovirus. As to the kind of experiment: Antiviral activity against EV71 infected in human RD cells assessed as protection from virus-induced cytopathogenicity by measuring reduction in progeny virus titer incubated for 48 hrs by MTT assay. The class given is functional, 71.
Data set [8] has as its system Coxsackievirus B3. As to the kind of experiment: Antiviral activity against CVB3 infected in HEp-2 cells assessed as inhibition of virus-induced cell death at 100 uM incubated for 48 hrs by MTT assay relative to control. Format: functional. As to conditions: for inhibition at 100 µM: Enterovirus B, HEp-2, 48 h.
Data set [9] relates to Enterovirus. Nature of the data set: Antiviral activity against EV71 infected in human RD cells assessed as protection from virus-induced cytopathogenicity incubated for 48 hrs by MTT assay. The class given is functional, organism-based. As to conditions: Enterovirus, 71, RD.
The test system of data set [10] is Enterovirus. As to the kind of experiment: Antiviral activity against EV71 infected in human RD cells assessed as inhibition of virus-induced cell death at 25 uM incubated for 48 hrs by MTT assay relative to control. The class given is functional. The settings on record: Enterovirus, 71, RD.
Data set [11] relates to Coxsackievirus B3. As to the kind of experiment: Antiviral activity against CVB3 infected in HEp-2 cells assessed as protection from virus-induced cytopathogenicity by measuring reduction in progeny virus titer incubated for 48 hrs by MTT assay. Format: functional.
In data set [12] the test system is Coxsackievirus B3. As to the kind of experiment: Antiviral activity against CVB3 infected in HEp-2 cells assessed as inhibition of virus-induced cell death at 50 uM incubated for 48 hrs by MTT assay relative to control. Format: functional. The settings on record: Enterovirus B.
For data set [13], the system named is Coxsackievirus B3. Nature of the data set: Antiviral activity against CVB3 infected in HEp-2 cells assessed as inhibition of virus-induced cell death at 25 uM incubated for 48 hrs by MTT assay relative to control. Format: functional. As to conditions: Enterovirus B.
A short description of data set [14]: Selectivity index, ratio of CC50 for cytotoxicity against human RD cells to EC50 for antiviral activity against EV71 infected in human RD cells. Format: toxicity, cell-based. As to conditions: read-out: Ratio CC50/EC50.
Data set [15] has as its system Enterovirus. Nature of the data set: Antiviral activity against EV71 infected in human RD cells assessed as inhibition of virus-induced cell death at 100 uM incubated for 48 hrs by MTT assay relative to control. As to conditions: for inhibition at 100 µM: Enterovirus, 71, RD. Format: functional, 71.
Data set [16] deals with Enterovirus. As to the kind of experiment: Antiviral activity against EV71 infected in human RD cells assessed as inhibition of virus-induced cell death at 50 uM incubated for 48 hrs by MTT assay relative to control. Format: functional. The settings on record: Enterovirus, 71, RD.
Data set [17] relates to Enterovirus. As to the kind of experiment: Antiviral activity against EV71 infected in human RD cells assessed as inhibition of virus-induced cell death at 25 to 100 uM incubated for 48 hrs by MTT assay. Format: functional, organism-based. As to conditions: 71, dose 25-100 µM.
The subject of data set [18] is Coxsackievirus B3. As to the kind of experiment: Antiviral activity against CVB3 infected in HEp-2 cells assessed as inhibition of virus-induced cell death at 25 to 100 uM incubated for 48 hrs by MTT assay. The settings on record: dose 25-100 µM. Format: functional, organism-based.

Molecules are shown by their SMILES. The source made the active and inactive calls. The calls are words filed in the database; no cut-off is given here.

Consider `CN1C(=O)c2ccccc2N2C(=O)CCC12C(=O)O` (stereo unspecified), for which the EC50 in [1] is 152 µM. In [2], the inhibition result was “inactive”. In addition, in data set [3], the inhibition result is recorded as “Active; Compared To Ribavirin The Antiviral Effect Is Comparable Or Slightly Inferior”. Besides, in data set [4], the selectivity ratio was 1.8. For the same compound, the figures for the CC50 at 48 h in [5] and in data set [6] were 276 µM and 327 µM, respectively.
Regarding `O=C1NC2(C(=O)O)CCC(=O)N2c2ccc(Cl)cc21` (stereo unspecified), the EC50 in data set [1] turned out to be 142 µM. In addition, in [2], the inhibition entry is “inactive”. In addition, in data set [3], the inhibition entry is recorded as “Active; Compared To Ribavirin The Antiviral Effect Is Comparable Or Slightly Inferior”. Further, the selectivity ratio in data set [4] was found to be 1.7. The 50% cytotoxic concentration (CC50) at 48 h in [5] came out at 245 µM; in [6], 317 µM.
Turning to `NC(=O)c1ncn([C@@H]2O[C@H](CO)[C@@H](O)[C@H]2O)n1` [RIBAVIRIN], the EC50 in data set [1] is 24.7 µM; in data set [9], 40.4 µM. For the same compound, the entries for the “log(activity)” value in [7] and in data set [11] were 2.3 and 3.07, respectively. Further, the values for the Imax in data set [8] and in data set [15] were 71% and 62.33%, respectively. The inhibition at 100 µM was found to be 71% in data set [8] and 69.7% in data set [15]. Besides, the figures for the inhibition at 25 µM in data set [10] and in [13] were 53.8% and 47.3%, respectively. Further, the results for the selectivity ratio in data set [4] and in data set [14] were 8.2 and 6.6, respectively. The values for the inhibition at 50 µM in data set [12] and in [16] were 60.7% and 61.1%, respectively. Besides, the 50% cytotoxic concentration (CC50) at 48 h came out at 204 µM in data set [5] and 267 µM in [6].
Regarding `O=C1NC2(C(=O)NCCc3c[nH]c4ccccc34)CCC(=O)N2c2ccc(Cl)cc21` (stereo unspecified), the half-maximal effective concentration (EC50) came to 33.5 µM in [1] and 16.8 µM in [9]. The inhibition at 100 µM stood at 65.7% in data set [8] and 88.4% in [15]. The inhibition at 25 µM in [10] is 57.8%; in [13], 38.5%. Also, the selectivity ratio in data set [4] stood at 5.4; in data set [14], 8.3. For the same compound, the inhibition at 50 µM was found to be 77.3% in data set [12] and 66.8% in [16]. Also, the figures for the cytotoxic concentration (CC50) at 48 h in data set [5] and in [6] were 180 µM and 140 µM, respectively. Further, the inhibition result in data set [17] was “Active”. Moreover, the “antiviral activity call (active/inactive)” value in [18] was “Active”.
For the compound `O=C1NC2(C(=O)O)CCC(=O)N2c2ccccc21` (stereo unspecified), the half-maximal effective concentration (EC50) in data set [1] is 143 µM. In [2], the inhibition entry is “inactive”. In data set [3], the inhibition result is “Active; Compared To Ribavirin The Antiviral Effect Is Comparable Or Slightly Inferior”. Besides, the selectivity ratio in data set [4] is 2.1. Besides, the results for the CC50 at 48 h in [5] and in data set [6] were 296 µM and 323 µM, respectively.
`COC(=O)C(Cc1c[nH]c2ccccc12)NC(=O)C12CCC(=O)N1c1ccc(Cl)cc1C(=O)N2` (stereo unspecified): the EC50 is 55.6 µM in [1] and 24.8 µM in data set [9]. For the same compound, the results for the inhibition at 100 µM in data set [8] and in data set [15] were 63.7% and 74%, respectively. Further, the inhibition at 25 µM came to 60.6% in data set [10] and 36.6% in data set [13]. Further, the selectivity ratio in data set [4] came to 3.1; in data set [14], 6.4. The inhibition at 50 µM in data set [12] is 45%; in [16], 75.3%. Besides, the CC50 at 48 h in [5] is 171 µM; in data set [6] it was 158 µM. Further, the inhibition result in [17] is “Active”. Further, in data set [18], the “antiviral activity call (active/inactive)” value was “Active”.
Consider `COc1cc(CNC(=O)C23CCC(=O)N2c2ccc(Cl)cc2C(=O)N3)ccc1O` (stereo unspecified), for which the figures for the EC50 in [1] and in [9] were 17.4 µM and 27.2 µM, respectively. In addition, the “inhibition (INH)” value in data set [8] (48 h, 100 µM) amounted to 92.3%. The inhibition at 100 µM in data set [8] was determined as 87.3%; in data set [15] it was 97.5%. In addition, the inhibition at 25 µM was found to be 67.5% in data set [10] and 48.9% in data set [13]. Besides, the selectivity ratio in data set [4] was found to be 10.8; in data set [14] it was 5.9. Besides, the inhibition at 50 µM was determined as 30.7% in [12] and 81.3% in data set [16]. Also, the cytotoxic concentration (CC50) at 48 h in data set [5] came out at 188 µM; in data set [6], 160 µM. The Imax in data set [15] is listed as 97.48%. Besides, the inhibition entry in data set [17] was “Active”. In addition, the “antiviral activity call (active/inactive)” value in data set [18] is “Active”.
In the case of `COC(=O)C(Cc1c[nH]c2ccccc12)NC(=O)C12CCC(=O)N1c1ccccc1C(=O)N2` (stereo unspecified), the EC50 in data set [1] came out at 43 µM; in [9], 28.8 µM. Also, the inhibition at 100 µM in data set [8] stood at 83.1%; in data set [15], 89.1%. Moreover, the inhibition at 25 µM in data set [10] was 65.8%; in data set [13], 30.8%. In addition, the values for the selectivity ratio in data set [4] and in data set [14] were 4.1 and 8, respectively. The inhibition at 50 µM in data set [12] stood at 45.7%; in data set [16], 74%. Besides, the CC50 at 48 h in data set [5] is 177 µM; in data set [6], 230 µM. In data set [17], the inhibition result is “Active”. In addition, in data set [18], the “antiviral activity call (active/inactive)” value was “Active”.
Turning to `COC(=O)C(Cc1c[nH]c2ccccc12)NC(=O)C12CCC(=O)N1c1ccccc1C(=O)N2C` (stereo unspecified), the EC50 in data set [1] amounted to 66.2 µM; in data set [9], 28.7 µM. Moreover, the inhibition at 100 µM came out at 63.7% in data set [8] and 78% in data set [15]. Further, the inhibition at 25 µM in data set [10] is 55.7%; in data set [13] it was 27.1%. Also, the selectivity ratio in [4] is 3.1; in data set [14], 9.8. The inhibition at 50 µM in [12] was 40.3%; in data set [16], 65.7%. Besides, the half-maximal cytotoxic concentration (CC50) at 48 h came to 202 µM in data set [5] and 282 µM in data set [6]. For the same compound, the inhibition result in data set [17] is “Active”. In data set [18], the “antiviral activity call (active/inactive)” value was “Active”.
